Source: PMC11696576, “Next generation thiazolyl ketone inhibitors of cytosolic phospholipase A2 α for targeted cancer therapy” (Nature Communications, 2025)
Values joined by “and” are separate entries in the source; they are usually repeats but may differ in a detail not shown here. Equal entries are not always repeated. Where two headings read alike, the source gives them in different places.

Tested on: panel of 66 cancer cell lines
Assay: cancer cell line screen, proliferation assay (ATPlite, 72 h)
Assay type: cell-based, human
Settings: for IC50: Homo sapiens; for raw signal, dose-response (Figure S7a): rep1, rep2, listed as AVX235
Description: Targeting specific molecular vulnerabilities in cancer is considered a key approach to reducing the adverse effects of chemotherapy. However, the events that govern the susceptibility to suppression of the cPLA2α in cancer remain largely unexplored. We therefore took the approach of screening the antiproliferative activity of AVX420 in a panel of 66 cancer cell lines (hereafter referred to as the cancer cell line screen or CCLS) to allow us to investigate molecular and genetic vulnerabilities to the drug.
Screening of compound activities in 66 cancer cell lines was carried out at the Netherlands Translation Research Center. Briefly, proliferation assays were performed 72 h after compound addition using ATPlite 1step reagent (Perkin Elmer). IC50s calculated by non-linear regression analysis were used as a measure of compound activity for investigating associations with genetic factors. A complete description of the laboratory and data analysis methods are available in the Supplementary Information file (Supplemental Methods: Cancer Cell Line Screening).
Cancer cell line screening
Cell proliferation assays
All cell lines were from the American Type Culture Collection (ATCC) Manassas, Virginia (US) and maintained under ATCC-recommended protocols and within 9 pas- […]
DMSO at -80°C until one hour before use. Cells exposed within one hour after thaw-ing of the compound stocks. Final compound concentration range in the assay was 10 […]
cated by supplier. Compounds were dissolved in 100 % DMSO and stored at room temperature. Final concentration of the reference compounds in the assay was 3.16x10-5 M to 3.16x10-9 M. The final DMSO concentration during incubation was […]
Cell lines were plated in Advanced RPMI 1640 (Gibco, ref 12633-012) cell culture medium, containing 1% Glutamax solution (Gibco, ref 35050-038), 0.4% Pen Strep solution (Gibco, ref 15140-122) and bovine serum. The cPLA2α inhibitors were tested in 0.5% bovine serum (HyClone, ref SH30072.03) with the exception of769-P, A-204, BT-549, SR, T98G, which were tested in the presence of 1.0% serum and A-704 and LNCaP FGS, which were tested in the in the presence of 10% serum. Reference com-pounds were all tested in the presence of 10% bovine serum.
Cells were dispensed in a 384-well plate, at a concentration of 200 - 3200 cells per well, depending on the cell line, in 45 μL medium. Plated cells were incubated in a humidified atmosphere of 5% CO2 at 37 °C. After 24 hours, 5 μL of compound dilu-tion was added and plates were further incubated for another 72 hours. After 72 hours, 25 μL of ATPlite 1Step™ (PerkinElmer) solution was added to each well, and subse-quently shaken for 2 minutes. After 10 minutes of incubation in the dark, the lumines-cence was recorded on an Envision multimode reader (PerkinElmer).
Cell growth control. The cellular doubling times of all cell lines are calculated from the t = 0 hours and t = 72 hours growth signals of the untreated cells. If the doubling time is out of specification (0.5 – 2.0 times deviating from historic average) the assay […]
IC50s were calculated by non-linear regression using IDBS XLfit 5. The percentage growth after 72h (%-growth) was calculated as follows: 100% x (luminescence t = 72h / luminescence untreated,t=72h). This was fitted to the 10log compound concentration (conc) by a 4-parameter logistics curve: %-growth = bottom + (top – bottom) / (1+ 10(logIC50 – conc)*hill)), where hill is the Hill-coefficient, and bottom and top the asymptotic mini-mum and maximum cell growth that the compound allows in that assay.
All analysis were performed in the statistical software package R and visualized using GraphPad Prism version 10.0 .0

IC50 (SK-N-AS, SKNAS, peripheral_nervous_system, read-out: pIC50 (converted)): 19.1 µM
IC50 (SK-N-AS, read-out: IC50): 19 µM
IC50 (SK-N-FI, read-out: IC50): 17.5 µM
IC50 (SNU-C2B, read-out: IC50): 14.7 µM
IC50 (SR, read-out: IC50): 13.8 µM
IC50 (SUP-T1, SUP-T1, read-out: IC50): 12.5 µM
IC50 (SW48, SW48, large_intestine, read-out: pIC50 (converted)): 20 µM
IC50 (SW48, SW48, read-out: IC50): 19.9 µM
IC50 (SW480, SW480, read-out: IC50): 13.5 µM
IC50 (SW948, SW948, read-out: IC50): 17.4 µM
IC50 (SW-620, SW620, read-out: IC50): 18.1 µM
IC50 (T98G, read-out: IC50): 28.4 µM
IC50 (T-24, T24, read-out: IC50): 12.3 µM
IC50 (TT, read-out: IC50): 21.8 µM
IC50 (U2OS, U-2 OS, read-out: IC50): 17.7 µM
IC50 (U-87 MG, U87MG, central_nervous_system, read-out: pIC50 (converted)): 17 µM
IC50 (U-87 MG, read-out: IC50): 17 µM
IC50 (VA-ES-BJ, read-out: IC50): 19.6 µM
pIC50 (Hs578T, breast): 4,862
pIC50 (J82, urinary_tract): 4,801
pIC50 (Jurkat, blood): 4,903
pIC50 (K562, blood): 4,964
pIC50 (KU812, blood): 4,982
pIC50 (LoVo, large_intestine): 4,715
pIC50 (MCF7, breast): 4,897
pIC50 (MIAPaCa2, pancreas): 4,962
pIC50 (MeWo, skin): 4,763
pIC50 (NCIH82, lung): 4,863
pIC50 (NCIH460, lung): 4,648
pIC50 (PA1, ovary): 4,937
pIC50 (RPMI7951, skin): 4,789
pIC50 (RT4, urinary_tract): 4,784
pIC50 (SHP77, lung): 4,925
pIC50 (SKNFI, peripheral_nervous_system): 4,757
pIC50 (SUPT1, blood): 4,905
pIC50 (SW480, large_intestine): 4,869
pIC50 (SW620, large_intestine): 4,743
pIC50 (SW948, large_intestine): 4,759
pIC50 (T24, urinary_tract): 4,911
pIC50 (T98G, central_nervous_system): 4,546
pIC50 (TT, thyroid): 4,661
pIC50 (U2OS, bone): 4,752
pIC50 (VAESBJ, soft_tissue): 4,707
Compound: CCCCCCCCc1ccc(OCC(=O)c2nc(C(=O)OC)cs2)cc1 [GK470]
raw signal, dose-response (Figure S7a) (Jurkat E6.1, Log10 M -4): 1240 and 667
raw signal, dose-response (Figure S7a) (Jurkat E6.1, Log10 M -4.5): 69347 and 62800
raw signal, dose-response (Figure S7a) (Jurkat E6.1, Log10 M -5): 1516720 and 2014840
raw signal, dose-response (Figure S7a) (Jurkat E6.1, Log10 M -5.5): 2624707 and 2368947
raw signal, dose-response (Figure S7a) (Jurkat E6.1, Log10 M -6): 2496507 and 2717280
raw signal, dose-response (Figure S7a) (Jurkat E6.1, Log10 M -6.5): 2786800 and 2504560
raw signal, dose-response (Figure S7a) (Jurkat E6.1, Log10 M -7): 2315800 and 2537613
raw signal, dose-response (Figure S7a) (Jurkat E6.1, Log10 M -7.5): 2302120 and 2459400
raw signal, dose-response (Figure S7a) (Jurkat E6.1, Log10 M -8): 2509133 and 2328987
raw signal, dose-response (Figure S7a) (KU812, Log10 M -4): 2000 and 2307
raw signal, dose-response (Figure S7a) (KU812, Log10 M -5): 1822573 and 2233120
raw signal, dose-response (Figure S7a) (KU812, Log10 M -5.5): 3176813 and 3177440
raw signal, dose-response (Figure S7a) (KU812, Log10 M -6): 3485480 and 3637827
raw signal, dose-response (Figure S7a) (KU812, Log10 M -6.5): 3729800 and 3806653
raw signal, dose-response (Figure S7a) (KU812, Log10 M -7): 3631000 and 3828800
raw signal, dose-response (Figure S7a) (KU812, Log10 M -7.5): 3591800 and 3773040
raw signal, dose-response (Figure S7a) (KU812, Log10 M -8): 3583000 and 3731880
raw signal, dose-response (Figure S7a) (MOLT-4, Log10 M -4): 6747 and 7320
raw signal, dose-response (Figure S7a) (MOLT-4, Log10 M -4.5): 20107 and 20253
raw signal, dose-response (Figure S7a) (MOLT-4, Log10 M -5): 5205800 and 4645067
raw signal, dose-response (Figure S7a) (MOLT-4, Log10 M -5.5): 6414373 and 7056240
raw signal, dose-response (Figure S7a) (MOLT-4, Log10 M -6): 6351120 and 6709307
raw signal, dose-response (Figure S7a) (MOLT-4, Log10 M -6.5): 7338240 and 7172960
raw signal, dose-response (Figure S7a) (MOLT-4, Log10 M -7): 6855453 and 6993467
raw signal, dose-response (Figure S7a) (MOLT-4, Log10 M -7.5): 7127253 and 7052227
raw signal, dose-response (Figure S7a) (MOLT-4, Log10 M -8): 6961773 and 6888133
raw signal, dose-response (Figure S7a) (SR, Log10 M -4): 14067 and 13787
raw signal, dose-response (Figure S7a) (SR, Log10 M -4.5): 35000 and 26573
raw signal, dose-response (Figure S7a) (SR, Log10 M -5): 2706093 and 3120400
raw signal, dose-response (Figure S7a) (SR, Log10 M -5.5): 3256320 and 3580587
raw signal, dose-response (Figure S7a) (SR, Log10 M -6): 3226453 and 3322280
raw signal, dose-response (Figure S7a) (SR, Log10 M -6.5): 3558600 and 3526027
raw signal, dose-response (Figure S7a) (SR, Log10 M -7): 2883787 and 3035533
raw signal, dose-response (Figure S7a) (SR, Log10 M -7.5): 3423760 and 3325493
raw signal, dose-response (Figure S7a) (SR, Log10 M -8): 3355853 and 3535333
raw signal, dose-response (Figure S7a) (SUP-T1, Log10 M -4): 23760 and 47307
raw signal, dose-response (Figure S7a) (SUP-T1, Log10 M -4.5): 44040 and 66933
raw signal, dose-response (Figure S7a) (SUP-T1, Log10 M -5): 5647093 and 4986840
raw signal, dose-response (Figure S7a) (SUP-T1, Log10 M -5.5): 6851973 and 7008107
raw signal, dose-response (Figure S7a) (SUP-T1, Log10 M -6): 6610693 and 7288227
raw signal, dose-response (Figure S7a) (SUP-T1, Log10 M -6.5): 6531960 and 6798507
raw signal, dose-response (Figure S7a) (SUP-T1, Log10 M -7): 6485200 and 6760880
raw signal, dose-response (Figure S7a) (SUP-T1, Log10 M -7.5): 6096293 and 6838453
raw signal, dose-response (Figure S7a) (SUP-T1, Log10 M -8): 6918733 and 6611987
